Data on 68 compounds can be found in doi:10.1101/2022.05.04.490172v1 (biorxiv, 2022).

For the assay, the system named is BRN2 (POU3F2), luciferase reporter assay. The assay is described as follows: cells. The conditions noted are these: for inhibition at 10 µM: read-out: % of Inhibition (Luciferase assay) / 10µM; for inhibition at 30 µM: read-out: % of Inhibition (Luciferase assay) / 30µM; for % of Inhibition (Luciferase assay) / 10µM / % of Inhibition (Luciferase assay) / 30µM: inhibitor.

As for `O=C(Oc1cccc(F)c1)c1cccc2ccccc12` [B-6], the inhibition at 10 µM was -6.6% and the inhibition at 30 µM is -58%.

`c1ccc2c(c1)CCC/C2=N\Nc1nc2ccccc2[nH]1` [B-32]: the inhibition at 10 µM came to 32.4% and the inhibition at 30 µM was 77.2%.

For `COc1ccc(CNc2ccc(C)cc2)c2ccccc12` [B-2], the inhibition at 10 µM is 19.6% and the inhibition at 30 µM worked out at 24.4%.

As for `O=C1c2ccccc2C(=O)N1c1nc(-c2ccccc2)cs1` [B-22], the inhibition at 10 µM is -129% and the inhibition at 30 µM is -138%.

As for `Cc1ccc(-c2nc3cc(N)ccc3n2C)o1` [B-63], the inhibition at 10 µM amounted to 22% and the inhibition at 30 µM was 44%.

Consider `CC/C(=N\Nc1nc2ccccc2[nH]1)c1ccc(O)cc1` [B-35], for which the inhibition at 10 µM came out at 0.336% and the inhibition at 30 µM came out at 50.1%.

`Oc1cccc(/C=N/Nc2nc3ccccc3[nH]2)c1O` [B-59]: the inhibition at 30 µM is -145%.

On to `c1ccc(-c2ccc(-c3nc4ccccc4[nH]3)o2)cc1` [B-66], for which the inhibition at 10 µM came to 11% and the inhibition at 30 µM amounted to 48%.

With `Brc1ccc(-c2ccc(-c3nc4ccccc4[nH]3)o2)c(Br)c1` [B-69], the inhibition at 10 µM worked out at 90% and the inhibition at 30 µM came out at 94%.

With `Oc1ccc(/C=N/Nc2nc3ccccc3[nH]2)c(O)c1O` [B-43], the inhibition at 10 µM amounted to 12.5% and the inhibition at 30 µM was -1.16%.

On to `Clc1cc(Br)ccc1-c1ccc(-c2nc3ccccc3[nH]2)o1` [B-70], for which the inhibition at 10 µM was determined as 88.1% and the inhibition at 30 µM amounted to 91.7%.

As to `Clc1ccc(Cl)c(-c2ccc(-c3nc4ccccc4[nH]3)o2)c1` [B-71], the inhibition at 10 µM came to 46.2%.

As to `Cc1ccc(-c2nc3ccccc3n2C)o1` [B-55], the inhibition at 10 µM is -120% and the inhibition at 30 µM was -88.1%.

For `Oc1ccc(/C=N/Nc2nc3ccccc3[nH]2)c(O)c1` [B-49], the inhibition at 10 µM stood at 46.1% and the inhibition at 30 µM came to 70.8%.

As to `Cn1c(-c2ccc(CO)o2)nc2ccccc21` [B-56], the inhibition at 10 µM is -114% and the inhibition at 30 µM was -134%.

On to `Cn1c(N/N=C2/CCc3c(O)cccc32)nc2ccccc21` [B-36], for which the inhibition at 10 µM was -39.4% and the inhibition at 30 µM is 28.6%.

As to `C/C(=N\Nc1nc2ccccc2[nH]1)c1ccc2ccccc2c1O` [B-45], the inhibition at 10 µM was found to be 77.2% and the inhibition at 30 µM worked out at 91.8%.

In the case of `Cc1cc(C(=O)Nc2cccc(Cl)c2)c2cc(F)ccc2n1` [B-14], the inhibition at 10 µM amounted to 41.6% and the inhibition at 30 µM was 32%.

For the compound `Clc1cccc(-c2ccc(-c3nc4cc(Cl)ccc4[nH]3)o2)c1` [B-72], the inhibition at 10 µM is -50.2% and the inhibition at 30 µM was 87.1%.

As for `Oc1ccccc1/C=N\Nc1nc2ccccc2[nH]1` [B-3], the inhibition at 10 µM is 69.2% and the inhibition at 30 µM worked out at 75.5%.

Consider `C[C@@H]1Cc2ccccc2N1C(=O)c1cccc2ccccc12` [B-20], for which the inhibition at 10 µM was determined as 15.7% and the inhibition at 30 µM was 35.5%.

For the compound `Oc1cccc(/C=N/Nc2nc3ccccc3[nH]2)c1` [B-54], the inhibition at 10 µM was -45.1% and the inhibition at 30 µM was -34.4%.

On to `Oc1ccc(Cl)cc1/C=N/Nc1nc2ccccc2[nH]1` [B-30], for which the inhibition at 10 µM is -6.38% and the inhibition at 30 µM turned out to be 28.1%.

For the compound `CC/C(=N/Nc1nc2ccccc2[nH]1)c1cccc(Cl)c1` [B-37], the inhibition at 10 µM came to 19.1% and the inhibition at 30 µM amounted to 80.2%.

Turning to `Cn1c(-c2ccc(-c3ccccc3)o2)nc2ccccc21` [B18], the inhibition at 10 µM stood at 97.6% and the inhibition at 30 µM turned out to be 99.4%.

As for `C/C(=N\Nc1nc2ccccc2[nH]1)c1ccccc1` [B-58], the inhibition at 30 µM was -58%.

Take `c1ccc2c(c1)C(=NNc1nc3ccccc3[nH]1)c1ccccc1-2` [B-40]: the inhibition at 10 µM is 93.2% and the inhibition at 30 µM was determined as 98.8%.

`O=C(CSc1nc2ccccc2[nH]1)c1ccccc1` [B-15]: the inhibition at 10 µM was -5% and the inhibition at 30 µM stood at 9.16%.

Consider `c1ccc(-c2csc(-c3ccccn3)n2)cc1` [B-24], for which the inhibition at 10 µM is -145% and the inhibition at 30 µM is -67.1%.

`Fc1ccc(Cl)cc1/C=N/Nc1nc2ccccc2s1` [B-4]: the inhibition at 10 µM was determined as 19.5% and the inhibition at 30 µM turned out to be 71.4%.

On to `Cc1ccccc1/C=N\Nc1nc2ccccc2[nH]1` [B-60], for which the inhibition at 10 µM was -23.8% and the inhibition at 30 µM stood at 25.5%.

On to `COc1ccc(CNc2ccccc2)c2ccccc12` [B-17], for which the inhibition at 10 µM came out at 3.97% and the inhibition at 30 µM was determined as 12.2%.

Consider `C/C(=N/Nc1nc2ccccc2[nH]1)c1ccc(C)cc1` [B-38], for which the inhibition at 10 µM amounted to 25.9% and the inhibition at 30 µM came out at 74.3%.

Take `Oc1ccccc1/C=N/Nc1nc2ccccc2[nH]1` [B-21]: the inhibition at 10 µM was -1.45% and the inhibition at 30 µM stood at 24.8%.

In the case of `Cc1cc(C(=O)Nc2cc(F)ccc2C)c2ccccc2n1` [B-5], the inhibition at 10 µM was 4.75% and the inhibition at 30 µM came out at 9.07%.

Take `C/C(=N\Nc1nc2ccccc2[nH]1)c1ccc(O)cc1` [B-46]: the inhibition at 10 µM came to 6.41% and the inhibition at 30 µM was found to be 46.7%.

With `Oc1ccc2ccccc2c1/C=N/Nc1nc2ccccc2[nH]1` [B-51], the inhibition at 10 µM was -12.8% and the inhibition at 30 µM is 76.8%.

Regarding `c1ccc2c(c1)CC/C2=N/Nc1ccc2ccccc2n1` [B-39], the inhibition at 10 µM stood at 99.1% and the inhibition at 30 µM was determined as 99.9%.

On to `c1ccc(NCc2csc3ccccc23)cc1` [B-11], for which the inhibition at 10 µM was -24.8% and the inhibition at 30 µM is -22.7%.

`CC/C(=N\Nc1nc2ccccc2[nH]1)c1ccc(F)cc1` [B-34]: the inhibition at 10 µM is 33.1% and the inhibition at 30 µM stood at 80%.

As for `Clc1ccc(-c2ccc(-c3nc4ccccc4[nH]3)o2)cc1Cl` [B-67], the inhibition at 10 µM was -99.2% and the inhibition at 30 µM came out at 74%.

For the compound `Oc1ccc(/C=N/Nc2nc3ccccc3[nH]2)cc1O` [B-44], the inhibition at 10 µM was determined as 0.0894% and the inhibition at 30 µM turned out to be 66.2%.

As for `Cc1ccc(-c2noc(-c3ccncc3)n2)cc1` [B-26], the inhibition at 10 µM was -147% and the inhibition at 30 µM was -38.9%.

With `O=C(Nc1ccc(F)cc1)c1ccccc1` [B-9], the inhibition at 10 µM was -61.5% and the inhibition at 30 µM was -58.1%.

For the compound `COc1ccccc1/C=N\Nc1nc2ccccc2[nH]1` [B-61], the inhibition at 10 µM was -172% and the inhibition at 30 µM is -70.4%.

Take `Cc1ccc(NCc2c[nH]c3ccccc23)cc1` [B-19]: the inhibition at 10 µM is -4.93% and the inhibition at 30 µM stood at 62%.

As for `Cc1cccc(C(=O)Oc2cccc3ccccc23)c1` [B-12], the inhibition at 10 µM turned out to be 5.02% and the inhibition at 30 µM was -8.87%.

Consider `Cc1cc(C)c2c(c1)/C(=N/Nc1nc3ccccc3[nH]1)CCC2` [B-33], for which the inhibition at 10 µM amounted to 21.6% and the inhibition at 30 µM is 84.3%.

For `C/C(=N/Nc1nc2ccccc2[nH]1)c1ccccc1O` [B-42], the inhibition at 10 µM was -3.59% and the inhibition at 30 µM was found to be 66.8%.

In the case of `Oc1c(Cl)cc(Cl)cc1/C=N/Nc1nc2ccccc2[nH]1` [B-31], the inhibition at 10 µM amounted to 22.6% and the inhibition at 30 µM amounted to 12.7%.

For the compound `c1ccc([C@H]2COC(c3cccs3)=N2)cc1` [B-23], the inhibition at 10 µM was -121% and the inhibition at 30 µM was -147%.

As for `Cn1c(-c2ccco2)nc2ccccc21` [B-57], the inhibition at 10 µM was -138% and the inhibition at 30 µM was -172%.

As to `C/C(=N/Nc1nc2ccccc2[nH]1)c1ccccc1Cl` [B-41], the inhibition at 10 µM was 18.8% and the inhibition at 30 µM was found to be 74.1%.

In the case of `Oc1ccc(Br)cc1/C=N/Nc1nc2ccccc2[nH]1` [B-52], the inhibition at 10 µM was found to be 27.1% and the inhibition at 30 µM is 21.3%.

Take `c1ccc(-c2nc(-c3cccnc3)no2)cc1` [B-27]: the inhibition at 30 µM was -166%.

In the case of `O=C(Nc1cc(Cl)cc(Cl)c1)c1ccccc1` [B-10], the “% of Inhibition (Luciferase assay) / 10µM” value is reported as -70.87% and the “% of Inhibition (Luciferase assay) / 30µM” value worked out at 68.05%.

On to `Oc1c(Br)cc(Br)cc1/C=N/Nc1nc2ccccc2[nH]1` [B-53], for which the inhibition at 10 µM was -127% and the inhibition at 30 µM is -80.2%.

For `Cc1ccccc1/C=N/Nc1nc2ccccc2[nH]1` [B-47], the inhibition at 10 µM was -2.99% and the inhibition at 30 µM amounted to 36.5%.

On to `Clc1ccccc1-c1ccc(-c2nc3ccccc3[nH]2)o1` [B-68], for which the inhibition at 10 µM turned out to be 54.9% and the inhibition at 30 µM stood at 94.4%.

As to `O=C(Nc1cc(Cl)cc(Cl)c1)c1ccccc1` [B-13], the “% of Inhibition (Luciferase assay) / 10µM” value is -8.507% and the “% of Inhibition (Luciferase assay) / 30µM” value is reported as 43.29%.

For `Oc1ccc(/C=N/Nc2nc3ccccc3[nH]2)cc1` [B-50], the inhibition at 10 µM was found to be 66.3% and the inhibition at 30 µM came to 72.1%.

As for `Cn1c(-c2ccco2)nc2cc(N)ccc21` [B-64], the inhibition at 10 µM was 19% and the inhibition at 30 µM stood at 39%.

Take `Cc1cc(C(=O)Nc2ccccc2)c2ccccc2n1` [B-1]: the inhibition at 10 µM amounted to 14.6% and the inhibition at 30 µM is 1.27%.

As for `c1ccc(-c2ccc(N3CCOCC3)s2)cc1` [B-25], the inhibition at 10 µM was -2.68% and the inhibition at 30 µM is 51.5%.

As for `Oc1ccc(/C=N\Nc2nc3ccccc3[nH]2)cc1Cl` [B-62], the inhibition at 10 µM worked out at 88.2% and the inhibition at 30 µM is 91.6%.

As to `COc1ccc(O)c(/C=N/Nc2nc3ccccc3[nH]2)c1` [B-29], the inhibition at 10 µM was -44.2% and the inhibition at 30 µM came out at 22.8%.

Take `c1cc(-c2noc(C3CCCCC3)n2)ccn1` [B-28]: the inhibition at 10 µM was -139% and the inhibition at 30 µM is -180%.

Turning to `C/C(=N/Nc1nc2ccccc2[nH]1)c1ccc(F)cc1` [B-48], the inhibition at 10 µM is -46.2% and the inhibition at 30 µM is -6.79%.
